Consider 2 compounds from patent publication US9457033B2, “Steroid alkaloids and uses thereof as antimicrobial agents against electron transport-deficient microbes and as potentiators for antimicrobial agents against pathogenic bacteria” (priority 2011, dated 2016).

Marks after values point to notes of the source that are not given here.

For test [1], the system named is S. aureus SCV NewbouldΔhemB. The test is described as follows: microbe, parasite or virus in culture. It is filed as cell-based. As to conditions: Staphylococcus aureus, 24 h, read-out: Diameter of inhibition zone.
Test [2] has as its system S. aureus SCV CF6A-S. The test is described as follows: microbe, parasite or virus in culture. Format: cell-based. As to conditions: Staphylococcus aureus, SCVCF6AS; Tomatidine (50 μg); thymidine auxotrophy; 24 hours at 37° C. with O2; DMSO control 0; read-out: Diameter of inhibition zone.
Test [3] has as its system S. aureus SCV CF41A-S. The test is described as follows: microbe, parasite or virus in culture. Format: cell-based. The settings on record: Staphylococcus aureus, SCVCF41AS, 24 h, read-out: Diameter of inhibition zone.
For test [4], the system named is normal S. aureus strain CF07-L. The test is described as follows: Broth growth with HQNO and/or tomatidine, visually evaluated (FIG. 2). It is filed as cell-based, Staphylococcus aureus. As to conditions: combination of HQNO (20 μg/ml) and tomatidine (8 μg/ml), 48 h. On the procedure: The MICs of tomatidine, tomatine and control antibiotics (gentamicin, vancomycin, erythromycin, ciprofloxacin and oxacillin) were determined against the normal strains ATCC 29213 and CF07-L as well as against the SCV strain CF07-S in the presence of 20 μg HQNO/ml.

In test [5] the test system is SCV NewbouldΔhemB. The test is described as follows: Tomatidine susceptibility with supplemental hemin, spotted on agar (FIG. 1A). Format: cell-based, Staphylococcus aureus. As to conditions: in the presence of supplemental hemin. The method, then: (§1) Normal (Newbould, CF07-L and CF1A-L), and SCV (NewbouldΔhemB (in the presence and absence of hemin), CF07-S (in the presence and absence of menadione) and CF1D-S) S. aureus strains were treated with various concentrations of tomatidine (4, 2, 1, 0.5, 0.25, 0.12 and 0.06 μg/ml) for 48 h in the Brain Hearth Infusion (BHI) medium at 35° C. and 10 μl samples were thereafter spotted on agar plated which were further incubated for 48 h before a picture was taken.

The subject of test [6] is SCV CF07-S. The test is described as follows: Tomatidine susceptibility with supplemental menadione, spotted on agar (FIG. 1A). It is filed as cell-based, Staphylococcus aureus. As to conditions: in the presence of supplemental menadione. On the procedure:
as §1

For test [7], the system named is SCV strain CF07-S. The test is described as follows: Time-kill experiment (FIG. 1C). It is filed as cell-based, Staphylococcus aureus. The settings on record: tomatidine at 0.25 μg/ml (2×MIC). On the procedure: (§2) (225 RPM), bacteria were sampled, serially diluted and plated on tryptic soy agar (TSA) for colony-forming unit (CFU) determinations (i.e., viable bacterial counts). Plates were incubated for 24 or 48 h at 35° C. for normal and SCV strains, respectively. The antibacterial activities of tomatidine and control antibiotics (erythromycin (a bacteriostatic macrolide) and ciprofloxacin (a bactericidal fluoroquinolone) against the normal CF07-L strain and the SCV CF07-S as a function of time are presented in FIGS. 1B and 1C, respectively. The antibacterial activity of tomatine against the SCV strain was also evaluated (TN in FIG. 1C).

Test [8] deals with normal CF07-L strain. The test is described as follows: Time-kill experiment (FIG. 1B). Format: cell-based, Staphylococcus aureus. As to conditions: tomatidine 16 μg/ml. The method, then:
as §2

For test [9], the system named is SCV strain CF07-S in shCFTR cells. The test is described as follows: Intracellular infection of polarized CF airway epithelial cells (shCFTR). It is filed as cell-based, Staphylococcus aureus. As to conditions: 1.25 and 12.5 μg/ml of tomatidine; 48 h post-internalization; FIG. 4B.
Test [10] deals with S. aureus ATCC 29213 alone. The test is described as follows: Viability in mono-culture, CAMHB. It is filed as cell-based, Staphylococcus aureus. As to conditions: SA alone + TO at 8 μg/ml. An excerpt:
(§3) Bacteria were sampled, serially diluted and plated on tryptic soy agar for CFU determinations. […] Mannitol-salt agar plates were used to selectively evaluate S. aureus CFU when in co-culture with P. aeruginosa.

The subject of test [11] is S. aureus ATCC 29213 in co-culture with P. aeruginosa PA14. The test is described as follows: Viability in co-culture with P. aeruginosa PA14, CAMHB. It is filed as cell-based, Staphylococcus aureus. As to conditions: for Viability of S. aureus: SA + PA + TO at 8 μg/ml.
Excerpt: as §3

Test [12] concerns Bacillus cereus ATCC 11778. The test is described as follows: Agar diffusion method, zone of inhibition. Format: cell-based. The settings on record: ATCC11778, Tomatidine (35 μg), 24 hours at 35° C., DMSO 0, read-out: Diameter of inhibition zone. On the procedure:
(§4) The effect of tomatidine on the growth of Bacillus subtilis strains ATCC 6633 and ATCC 9372, Bacillus cereus strain ATCC 11778 and Listeria monocytogenes strain ATCC 13932 was tested by an agar diffusion method. Bacillus spp. strains and Listeria monocytogenes were spread on the surface of Mueller-Hinton agar and Mueller-Hinton supplemented with 5% sheep blood, respectively. 35 μg of tomatidine diluted in DMSO or DMSO alone were added to wells for diffusion and plates were incubated for 24 hours at 35° C. The diameters of the zones of inhibition around the wells (for the DMSO control and for the tomatidine well) were measured and reported in mm in TABLE 12 below.
A general note: In agar diffusion tests the substance spreads into inoculated agar from a disc or well.

The test system of test [13] is Bacillus subtilis ATCC 6633. The test is described as follows: Agar diffusion method, zone of inhibition. Format: cell-based. The settings on record: ATCC6633, Tomatidine (35 μg), 24 hours at 35° C., DMSO 5, read-out: Diameter of inhibition zone. The method, then:
as §4

The subject of test [14] is Bacillus subtilis ATCC 9372. The test is described as follows: Agar diffusion method, zone of inhibition. It is filed as cell-based. The settings on record: ATCC9372, Tomatidine (35 μg), 24 hours at 35° C., DMSO 0, read-out: Diameter of inhibition zone. The method, then: as §4
In test [15] the test system is Listeria monocytogenes ATCC 13932. The test is described as follows: Agar diffusion method, zone of inhibition. It is filed as cell-based. The settings on record: ATCC13932, Tomatidine (35 μg), 24 hours at 35° C., 5% sheep blood, DMSO 0, read-out: Diameter of inhibition zone. On the procedure: as §4
Test [16] relates to colonies isolated from S. aureus ATCC 29213 cultures exposed to gentamicin. The test is described as follows: Gentamicin susceptibility of colonies isolated from 24 h-cultures exposed to gentamicin. It is filed as cell-based, Staphylococcus aureus. The method, then:
Accordingly, colonies isolated from 24 h-cultures exposed to gentamicin were often normal-growing bacteria with a decreased susceptibility to gentamicin (MIC ranging from 1 to 4 μg/ml) or SCVs (MIC for gentamicin ranging from 4 to 8 μg/ml). […] From these time-kill experiments, isolated colonies obtained from cultures exposed to gentamicin combined or not with 8 μg/ml tomatidine were analyzed for their susceptibility to gentamicin. When ATCC 29213 was exposed to gentamicin alone, the emergence of numerous normal-growing isolates showing decreased susceptibility to gentamicin (MIC ranging from 1 to 4 mg/L) was easily detected.

The test system of test [17] is heterogeneous population of normal strain CF07-L and SCV CF07-S. The test is described as follows: Broth growth with gentamicin and tomatidine, visually evaluated (FIG. 5C). As to conditions: combination of gentamicin at 4 μg/ml and tomatidine at 0.12 μg/ml.
The mark [18] stands for this setting: colonies from 24 h-cultures exposed to gentamicin.

Consider `C[C@H]1CC[C@]2(NC1)O[C@H]1C[C@H]3[C@@H]4CC[C@H]5C[C@@H](O)CC[C@]5(C)[C@H]4CC[C@]3(C)[C@H]1[C@@H]2C` [Tomatidine, tomatidine], for which the figures for the zone of inhibition at 50 µg/disc in test [1], in [2] and in test [3] were 23.5 mm, 23 mm and 21.5 mm, respectively. The “growth, visually evaluated” value in test [4] is “inhibitory activity”. Besides, the susceptibility to tomatidine entry in [5] and in test [6] was “abolished” in each case. Also, in test [7], the “time-kill effect on growth and viability” value is listed as “induced bacteriostasis”. In addition, the “time-kill effect on growth” value in test [8] is “does not affect the growth”. Further, the “intracellular SCVs CF07-S vs DMSO-treated control cells” value in test [9] is “significantly less”. Further, the “Viability of S. aureus” value is reported as 5.1 ± 0.4 Log10 CFU/ml in test [10] (0 h), 9.64 ± 0.08 Log10 CFU/ml in test [10] (24 h), 5.4 ± 0.1 Log10 CFU/ml in test [11] (0 h) and 2 ± 1 ^b Log10 CFU/ml in test [11] (24 h). Besides, the “type of antibacterial effect” value in test [11] (in co-culture with P. aeruginosa, tomatidine 8 μg/ml) is given as “bactericidal”. The zone of inhibition at 35 µg/disc in [12] was determined as 21.5 mm; in [13] it was 25.5 mm; in test [14], 25.5 mm; in test [15] it was 12.5 mm.

In the case of gentamicin, the “MIC of normal-growing isolates showing decreased susceptibility to gentamicin” value in test [16] (ATCC 29213 exposed to gentamicin alone) was in the range of 1 to 4 µg/mL. For the same compound, in test [16] (setting [18]), the “MIC for gentamicin of SCVs” value is 4 to 8 µg/mL and the “MIC for gentamicin of normal-growing bacteria with decreased susceptibility” value was 1 to 4 µg/mL. Moreover, the “growth, visually evaluated” value in test [17] was “inhibits the growth”.

A word on the zone of inhibition: it is the size of the clear area around the sample on an inoculated plate.
